Key:
Rhopalosiphum padi = test: Efficacy on aphids on infested wheat seedlings, spray treatment; type: in vivo; settings: sprayed on wheat seedlings
Description: The trial was carried out on wheat infected with aphids.
Rhopalosiphum padi aphids are reared on wheat in the laboratory. The rearing conditions are as follows: 14 hrs in the light at 18° C., and 10 hrs in darkness at 15° C. at a relative humidity (RH) of 60-70%.
“Triticum aestivum” wheat of the Apache variety is grown under the following conditions: 14 hrs in the light at 18° C., and 10 hrs in darkness at 15° C. at a relative humidity (RH) of 60-70%. For the experiments, seedlings having reached stage 12 on the BBCH-scale, i.e. 2 leaves, are chosen.
On D-1, 3 adult aphids are placed on each wheat seedling (approximately 30 seedlings per dose tested). The seedlings are kept for 14 hrs in the light at 18° C., and 10 hrs in darkness at 15° C. at a relative humidity (RH) of 60-70%.
On day D, the seedlings are treated with a composition as described in Example 1.a.). Emulsions containing the following doses of isoamyl laurate were tested: 1.35 L/ha (N/4), 2.7 L/ha (N/2), […] (N), 10.8 L/ha (2N) and 16.2 L/ha (3N). Two controls are carried out: a first control using water and a second control using the adjuvant, tested alone, at a dose of 1.8 L/ha, which corresponds to the dose of adjuvant contained in dose 3N of isoamyl laurate. The volume of composition sprayed corresponds to the equivalent of 200 L/ha.
For the treatment, nozzles are used to spray the different emulsions and to produce a good distribution of the drops over the plants (TeeJet 100015-VS flat spray nozzle used on a Euro-Pulvé laboratory sprayer).
On D+1, D+3, D+7, the adults and larvae present on each seedling are counted.
Statistical analysis is carried out using XLSTATS and a variance analysis is carried out using a Newman-Keuls and a Dunnett's test. The Dunnett's tests used post hoc following an ANOVA give a probability of 0.00.
The seedlings are treated on day D with a composition as described in Example 1.b). An emulsion containing the following dose of 2-ethylhexyl caprate was tested: 16.2 L/ha (3N). […]

[1] = Trials comparing a concentrate containing isoamyl laurate with a commercial insecticide containing Lambda-cyhalothrin; settings: concentrate containing isoamyl laurate vs commercial insecticide containing Lambda-cyhalothrin
Source text: Preferably, in the concentrates according to the invention, the insecticide and/or arachnicide compound of formula (I) is 3-methylbutyl dodecanoate (isoamyl laurate).

[2] = system: Pollen beetles Meligethes aeneus, strains resistant to pyrethroids; test: Efficacy on pollen beetles, coated glass phial, IRAC method no.11, strains resistant to pyrethroids; type: in vivo; settings: after 24 hrs
Description: (§1) The efficacy of isoamyl laurate against pollen beetles has been evaluated according to a protocol based on IRAC (Insecticide Resistance Action Committee) method no.11, version 3, June 2009.
(§2) Pollen beetles are collected from different locations in infested fields. They are then kept in ventilated plastic boxes, in the bottom of which a dry paper has been placed. A number of oilseed rape leaves as well as 2 to 3 oilseed rape in flower are added as a food source. As it is important that the pollen beetles are not subjected to excessive temperatures, to humid conditions or other sources of stress following collection, they are kept under the following conditions: 14 hrs in the light at 18° C., and 10 hrs in darkness at 15° C. at a relative humidity (RH) of 60-70%.
(§3) The isoamyl laurate product was solubilized in acetone. Each solution was then placed in a homogeneous manner on the inside of a glass phial 2 cm in diameter and 4 cm in height, until the acetone has completely evaporated. The quantity of insecticide provided by 0.5 mL of acetone solution is calculated in such a way that a unit of area of the phial is covered with the same quantity of insecticide as that carried by the same unit of area of a leaf belonging to a field having undergone a treatment at 200 L/ha.
(§4) 10 pollen beetles are introduced into each phial, each trial being carried out twice.
(§5) Mortality is evaluated after 24 hrs.

Ostrinia nubilalis = test: Efficacy on the European corn borer on corn leaves, spray treatment; type: in vivo; settings: dose 6.0 L/ha, composition 1.a, counted on D+3
Description: The test was carried out on corn infected by the European corn borer. Egg clusters from Ostrinia nubilalis are kept under controlled laboratory conditions in order to allow the eggs to develop. The eggs are kept for 14 hrs in the light and at 18° C., and for 10 hrs in the dark at 15° C. at a relative humidity varying from 60 to 70%. After emerging, the larvae at the 1st and 2nd instar stages are used in the experiment. “Zea Mays” corn of the variety DK315 is grown under the following conditions: 14 hrs in the light at 18° C., and 10 hrs in darkness at 15° C. at a relative humidity (RH) of 60-70%. On D-1, 3 corn leaves are taken from the seedlings and placed in ventilated plastic boxes. 10 larvae are then placed onto the corn leaves in each box, the trial being repeated three times. The larvae are kept for 14 hrs in the light at 18° C., and 10 hrs in darkness at 15° C. at a relative humidity (RH) of 60-70%. The leaves are treated on day D with a composition as described in Example 1.a) with a dose of isoamyl laurate equivalent to 6.0 L/ha. For the treatment, nozzles are used to spray the composition in example 1.a) and to produce a good distribution of the drops onto the plants (TeeJet 110015-VS flat spray nozzle used on a Euro-Pulvé laboratory sprayer). […] On D+3, the larvae and adults present in each box are counted. […]

[3] = system: Leptinotarsa decemlineata; test: Efficacy on Colorado potato beetle larvae, leaf soaking, IRAC method no.7; type: in vivo; settings: dose 6.0 L/ha, composition 1.a, L4 larvae, mortality after 5 hrs
Description: The efficacy of isoamyl laurate on Colorado potato beetles has been evaluated according to a protocol based on IRAC (Insecticide Resistance Action Committee) method no.7, version 3, June 2009. Eggs from the Colorado potato beetle are collected from fields and placed on the lower (abaxial) surface of potato leaves. After 4 to 15 days, the hatching of the eggs takes place, producing dark red-brown larvae. Potato leaves are treated by soaking for 5 seconds in a composition as described in Example 1.a) at a dose of isoamyl laurate equivalent to 6.0 L/ha. The potato leaves are infested on the abaxial face thereof with 5 Colorado potato beetle larvae at stage L4. Each trial is repeated a second time. Mortality is evaluated after 5 hrs. At a dose of 6.0 L/ha of isoamyl laurate, 10% efficacy is obtained on the Colorado potato beetle larvae.

[4] = system: Pollen beetles Meligethes aeneus, susceptible; test: Efficacy on pollen beetles, coated glass phial, IRAC method no.11, susceptible strains; type: in vivo; settings: after 24 hrs
Description: as §1, §2, §3, §4, §5

[5] = dose 3N (16.2 L/ha) on D+1, composition with Actirob B adjuvant

Structure (SMILES)	efficacy (Rhopalosiphum padi; [5])	toxicity (aquatic toxicity, toxicity in humans through inhalation, irritation of the skin and eyes) [1]	Efficacy (%) Strains resistant to pyrethroids ([2]; dose 2.0 L/ha) [%]	Efficacy (%) Strains resistant to pyrethroids ([2]; dose 4.0 L/ha) [%]	efficacy against the larvae and adults (Ostrinia nubilalis) [%]	efficacy (Rhopalosiphum padi; dose 3N (16.2 L/ha), composition 1.a with Actirob B adjuvant, FIG. 2) [%]	efficacy (mortality) on larvae [3] [%]	Efficacy (%) Susceptible ([4]; dose 2.0 L/ha) [%]	Efficacy (%) Susceptible ([4]; dose 4.0 L/ha) [%]
CCCCCCCCCC(=O)OCC(CC)CCCC (stereo not shown) [2-ethylhexyl caprate]	~55%								
CCCCCCCCCCCCCCCC(=O)OCC(CC)CCCC (stereo not shown) [2-ethylhexyl palmitate, reference compound]	approximately 10%								
CCCCCCCCCCCC(=O)OCCC(C)C [isoamyl laurate, 3-methylbutyl dodecanoate]		less toxic	40	75	19.5	~80	10	55	90

Reference: patent US10045531B2, “Use of one or more fatty acid esters as insecticide and/or arachnicide” (Oleon NV, priority 2014, dated 2018)
